{
  "source": "paper PMC12169615",
  "about": "“Fluorescent 4‑Nitrobenzo-2-oxa-1,3-diazole-Coupled Bile Acids as Probe Substrates of Hepatic and Intestinal Bile Acid Transporters of the Solute Carrier Families SLC10 and SLCO” (Journal of Medicinal Chemistry, 2025)",
  "key": {"human ASBT": {"molecular_target": "T1, human ASBT (Homo sapiens, UniProt Q12908)", "T1 sequence (Q12908 1-348)": "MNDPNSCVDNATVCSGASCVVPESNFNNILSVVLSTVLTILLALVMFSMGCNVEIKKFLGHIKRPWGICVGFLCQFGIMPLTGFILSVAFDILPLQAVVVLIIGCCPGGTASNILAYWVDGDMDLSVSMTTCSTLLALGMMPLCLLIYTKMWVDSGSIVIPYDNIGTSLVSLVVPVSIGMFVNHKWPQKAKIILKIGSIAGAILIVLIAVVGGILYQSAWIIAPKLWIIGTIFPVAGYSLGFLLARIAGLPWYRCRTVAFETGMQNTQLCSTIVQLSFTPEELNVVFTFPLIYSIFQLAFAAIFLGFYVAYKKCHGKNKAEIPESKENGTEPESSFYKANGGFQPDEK", "test": "Quantitative uptake of 3-NBD-BA in carrier-expressing HEK293 cells (fluorescence reader)", "format": "cell-based", "parameters": "stably transfected with the full open reading frames of human NTCP, ASBT, SOAT, OATP1B1, and OATP1B3; expressed in transfected cells", "conditions": "ASBT-HEK293, 25 μM, 37 °C, +Na+ vs -Na+", "protocol": "(§1) For quantification of the transport activity of the synthesized NBD-BA, all cell lines were seeded on 96 well plates and transport experiments were performed under the same control conditions (-Na^+ control for the SLC10 carriers and nontransfected HEK293 cells for the OATP carriers) as before (Figure ). For each NBD-BA, a substrate concentration of 25 μM was used, and the uptake phase was terminated after 10 min of incubation at 37 °C. […] The transport ratios ranged from 3-fold to 39-fold. In direct comparison, 3α-NBD-TCA (14d) and 3α-NBD-GCA (16d) were transported better than their 3β-analogs 3β-NBD-TCA (14a) and 3β-NBD-GCA (16a), respectively, clearly pointing to a preference for the α-position over the β-position of the 3-NBD-label. In direct comparison between the taurine- or glycine-conjugation of the respective NBD-BA, there was a clear preference for 3α-NBD-GCA (16d) over 3α-NBD-TCA (14d), at least for NTCP and mAsbt, pointing to a favorable substrate recognition for glycine-conjugated NBD-BA.\n(§2) 5 Quantitative uptake experiments with the 3-NBD-BA in HEK293 cells stably expressing the human carriers NTCP, ASBT, SOAT, OATP1B1, and OATP1B3, or the mouse carriers mNtcp and mAsbt. For the SLC10 carriers, all transport experiments were performed in the presence (filled bars) and the absence (hatched bars) of sodium. For the OATP carriers, uptake into carrier-expressing cells (filled bars) was compared to uptake into non-carrier-expressing HEK293 cells (hatched bars). All cell lines were incubated at 37 °C for 10 min with the indicated 3-NBD-BA at 25 μM. Then, cells were washed with PBS and subjected to fluorescence detection. The following fluorescent BA were analyzed: 3α-NBD-TCA (14d), 3β-NBD-TCA (14a), 3α-NBD-GCA (16d), 3β-NBD-GCA (16a), 3β-NBD-TCDCA (14b), 3β-NBD-CDCA (6b), 3β-NBD-DCA (6c), 3α-NBD-CA (6d), and 3β-NBD-CA (6a). Data represent means ± SD of triplicate determinations of representative experiments. […] RFU, relative fluorescence units. TEXT PRINTED IN THE PICTURE: 3α-NBD-TCA (14d): NTCP: 9 X; mNtcp: 30 X; ASBT: 2 X; mAsbt: 14 X | 3ß-NBD-TCA (14a): NTCP: 12 X; mNtcp: 20 X; mAsbt: 18 X | 3α-NBD-GCA (16d): NTCP: 27 X; mNtcp: 26 X; ASBT: 3 X; mAsbt: 39 X | 3ß-NBD-GCA (16a): NTCP: 15 X; mNtcp: 14 X; mAsbt: 5 X | 3ß-NBD-TCDCA (14b): NTCP: 5 X; mNtcp: 3 X; mAsbt: 4 X | 3ß-NBD-CDCA (6b): mNtcp: < 2 X; ASBT: < 2 X; mAsbt: < 2 X; OATP1B1: < 2 X; OATP1B3: < 2 X | 3ß-NBD-DCA (6c): mNtcp: < 2 X; ASBT: < 2 X; mAsbt: < 2 X | 3α-NBD-CA (6d): mNtcp: 2 X; mAsbt: 4 X | 3ß-NBD-CA (6a): NTCP: 2 X; mNtcp: 2 X; mAsbt: 2 X DOUBTS OF THE COPYIST ABOUT THIS PICTURE: The picture prints no panel letters, so the chart titles (NTCP, mNtcp, ASBT, mAsbt, OATP1B1, OATP1B3) are written in front of the values as the target. / Substance labels: the sign after '3' is printed like 'ß' and may be meant as 'β'. / The 'ns' marks and significance asterisks were left out as statistics. The SOAT chart prints only 'ns'."}, "human NTCP": {"molecular_target": "T2, human NTCP (Homo sapiens, UniProt Q14973)", "T2 construct": "HEK293 cell lines stably transfected with the full open reading frames of human NTCP; expressed in transfected cells", "T2 sequence (Q14973 1-349)": "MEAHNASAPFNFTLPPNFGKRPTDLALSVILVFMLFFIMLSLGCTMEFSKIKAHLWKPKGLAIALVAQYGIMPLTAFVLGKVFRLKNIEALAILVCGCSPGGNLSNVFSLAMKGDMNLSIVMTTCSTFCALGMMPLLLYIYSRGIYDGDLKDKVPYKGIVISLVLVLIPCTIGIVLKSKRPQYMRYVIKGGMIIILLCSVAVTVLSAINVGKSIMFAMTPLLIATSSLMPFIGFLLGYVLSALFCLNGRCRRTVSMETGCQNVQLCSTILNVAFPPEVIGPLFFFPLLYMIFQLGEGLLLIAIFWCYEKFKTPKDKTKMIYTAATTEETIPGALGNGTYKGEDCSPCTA", "test": "Quantitative uptake of 3-NBD-BA in carrier-expressing HEK293 cells (fluorescence reader)", "format": "cell-based", "conditions": "NTCP-HEK293, 25 μM, 37 °C, +Na+ vs -Na+", "protocol": "as §1, §2"}, "[1]": {"test": "logP(o/w), octanol/water partition", "conditions": "1:1 mixture of water and 1-octanol, fluorescence detection or liquid scintillation; for logP: 1-octanol/water, LogP(o/w)", "protocol": "9 Membrane permeability of the 3-NBD-BA and logP(o/w) values. […] The lipophilic and hydrophilic phases were separated by centrifugation and both phases were analyzed by fluorescence detection or liquid scintillation, respectively.\nAll NBD-BA were diluted to 1 pM in STB, and […] and emission spectra were measured from 300 to 650 nm (Spark Multimode Microplate, Tecan, Männedorf, Switzerland). […] The [^3H]-CA was generously provided by Prof. Dr. Alan Hofmann, University of California (San Diego, United States)."}},
  "note": "Several values for one entry are separate records, joined by “and”; a condition that tells them apart may be missing. Identical values can stand only once.",
  "data": [
    {"molecule": "7α-Hydroxy-3β-[(7-nitro-2,1,3-benzoxadiazol-4-yl)amino]-5β-cholan-24-oate [6b]", "values": [
      {"measurement": "Specific transport ratio ASBT (25µM/10 min uptake)", "setting": "human ASBT", "value": "<2", "unit": "x x-fold"},
      {"measurement": "Specific transport ratio NTCP (25µM/10 min uptake)", "setting": "human NTCP", "value": "ns"}
    ]},
    {"molecule": "12α-Hydroxy-3β-[(7-nitro-2,1,3-benzoxadiazol-4-yl)amino]-5β-cholan-24-oate [6c]", "values": [
      {"measurement": "LogP(o/w)", "setting": "[1]", "value": 2.147},
      {"measurement": "Specific transport ratio ASBT (25µM/10 min uptake)", "setting": "human ASBT", "value": "<2", "unit": "x x-fold"},
      {"measurement": "Specific transport ratio NTCP (25µM/10 min uptake)", "setting": "human NTCP", "value": "ns"}
    ]},
    {"molecule": "C[C@H](CCC(=O)O)[C@H]1CC[C@H]2[C@@H]3[C@H](O)C[C@@H]4C[C@@H](Nc5ccc([N+](=O)[O-])c6nonc56)CC[C@]4(C)[C@H]3C[C@H](O)[C@]12C", "note": "[6a, 7α,12α-Dihydroxy-3β-[(7-nitro-2,1,3-benzoxadiazol-4-yl)amino]-5β-cholan-24-oate]", "values": [
      {"measurement": "logP", "setting": "[1]", "value": "> 2"},
      {"measurement": "Specific transport ratio ASBT (25µM/10 min uptake)", "setting": "human ASBT", "value": "ns"},
      {"measurement": "Specific transport ratio NTCP (25µM/10 min uptake)", "setting": "human NTCP", "value": "2 x-fold and 2x x-fold"}
    ]},
    {"molecule": "C[C@H](CCC(=O)O)[C@H]1CC[C@H]2[C@@H]3[C@H](O)C[C@@H]4C[C@H](Nc5ccc([N+](=O)[O-])c6nonc56)CC[C@]4(C)[C@H]3C[C@H](O)[C@]12C", "note": "[6d, 7α,12α-Dihydroxy-3α-[(7-nitro-2,1,3-benzoxadiazol-4-yl)amino]-5β-cholan-24-oate]", "values": [
      {"measurement": "logP", "setting": "[1]", "value": 2.8},
      {"measurement": "Specific transport ratio ASBT (25µM/10 min uptake)", "setting": "human ASBT", "value": "ns"},
      {"measurement": "Specific transport ratio NTCP (25µM/10 min uptake)", "setting": "human NTCP", "value": "ns"}
    ]},
    {"molecule": "C[C@H](CCC(=O)NCCS(=O)(=O)[O-])[C@H]1CC[C@H]2[C@@H]3[C@H](O)C[C@@H]4C[C@@H](Nc5ccc([N+](=O)[O-])c6nonc56)CC[C@]4(C)[C@H]3C[C@H](O)[C@]12C.[Na+]", "note": "[14a]", "values": [
      {"measurement": "logP", "setting": "[1]", "value": 0.14},
      {"measurement": "Specific transport ratio ASBT (25µM/10 min uptake)", "setting": "human ASBT", "value": "not transported and ns"},
      {"measurement": "Specific transport ratio NTCP (25µM/10 min uptake)", "setting": "human NTCP", "value": 12, "unit": "x x-fold"}
    ]},
    {"molecule": "C[C@H](CCC(=O)NCCS(=O)(=O)[O-])[C@H]1CC[C@H]2[C@@H]3[C@H](O)C[C@@H]4C[C@H](Nc5ccc([N+](=O)[O-])c6nonc56)CC[C@]4(C)[C@H]3C[C@H](O)[C@]12C.[Na+]", "note": "[14d]", "values": [
      {"measurement": "logP", "setting": "[1]", "value": 0.03},
      {"measurement": "LogP(o/w)", "setting": "[1]", "value": 0.027},
      {"measurement": "Specific transport ratio NTCP (25µM/10 min uptake)", "setting": "human NTCP", "value": 9, "unit": "x x-fold"}
    ]},
    {"molecule": "C[C@H](CCC(=O)NCC(=O)O)[C@H]1CC[C@H]2[C@@H]3[C@H](O)C[C@@H]4C[C@@H](Nc5ccc([N+](=O)[O-])c6nonc56)CC[C@]4(C)[C@H]3C[C@H](O)[C@]12C", "note": "[16a]", "values": [
      {"measurement": "logP", "setting": "[1]", "value": -0.01},
      {"measurement": "Specific transport ratio ASBT (25µM/10 min uptake)", "setting": "human ASBT", "value": "not transported and ns"},
      {"measurement": "Specific transport ratio NTCP (25µM/10 min uptake)", "setting": "human NTCP", "value": 15, "unit": "x x-fold"}
    ]},
    {"molecule": "C[C@H](CCC(=O)NCC(=O)O)[C@H]1CC[C@H]2[C@@H]3[C@H](O)C[C@@H]4C[C@H](Nc5ccc([N+](=O)[O-])c6nonc56)CC[C@]4(C)[C@H]3C[C@H](O)[C@]12C", "note": "[16d]", "values": [
      {"measurement": "logP", "setting": "[1]", "value": 0.462},
      {"measurement": "Specific transport ratio NTCP (25µM/10 min uptake)", "setting": "human NTCP", "value": 27, "unit": "x x-fold"}
    ]}
  ]
}
